According to PubChem BioAssay (NCI):
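Briefly, cells in 96-well plates were exposed to five compound concentrations for 48 h, and endpoints were estimated by linear interpolation. At the TGI there is no net growth.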

Experiments:
Assay in all cases: DTP human tumour cell line panel, 48 h
UACC-62 melanoma = tested on: UACC-62 melanoma
U251 CNS = tested on: U251 CNS
PC-3 prostate = tested on: PC-3 prostate
SW-620 colon = tested on: SW-620 colon
SN12C renal = tested on: SN12C renal
786-0 renal = tested on: 786-0 renal
SK-MEL-28 melanoma = tested on: SK-MEL-28 melanoma
HCT-116 colon = tested on: HCT-116 colon
NCI-H460 lung = tested on: NCI-H460 lung
UACC-257 melanoma = tested on: UACC-257 melanoma
NCI-H226 lung = tested on: NCI-H226 lung
A549 NSCLC = tested on: A549 NSCLC
SF-295 CNS = tested on: SF-295 CNS
DU-145 prostate = tested on: DU-145 prostate
MDA-MB-435 = tested on: MDA-MB-435
MDA-MB-231 breast = tested on: MDA-MB-231 breast
NCI-H522 lung = tested on: NCI-H522 lung
MCF7 breast = tested on: MCF7 breast
IGROV1 ovarian = tested on: IGROV1 ovarian
HOP-92 NSCLC = tested on: HOP-92 NSCLC
CCRF-CEM leukemia = tested on: CCRF-CEM leukemia
RXF 393 renal = tested on: RXF 393 renal
SK-OV-3 ovarian = tested on: SK-OV-3 ovarian
OVCAR-4 ovarian = tested on: OVCAR-4 ovarian
HS 578T breast = tested on: HS 578T breast
TK-10 renal = tested on: TK-10 renal
NCI/ADR-RES ovarian = tested on: NCI/ADR-RES ovarian
HCC-2998 colon = tested on: HCC-2998 colon
OVCAR-3 ovarian = tested on: OVCAR-3 ovarian
SK-MEL-5 melanoma = tested on: SK-MEL-5 melanoma
HCT-15 colon = tested on: HCT-15 colon
RPMI-8226 leukemia = tested on: RPMI-8226 leukemia
COLO 205 colon = tested on: COLO 205 colon
MOLT-4 leukemia = tested on: MOLT-4 leukemia
M14 melanoma = tested on: M14 melanoma
SF-539 CNS = tested on: SF-539 CNS
A498 renal = tested on: A498 renal
SNB-19 CNS = tested on: SNB-19 CNS
K-562 leukemia = tested on: K-562 leukemia
OVCAR-5 ovarian = tested on: OVCAR-5 ovarian
HT29 colon = tested on: HT29 colon
KM12 colon = tested on: KM12 colon
SK-MEL-2 melanoma = tested on: SK-MEL-2 melanoma
MDA-N = tested on: MDA-N
MALME-3M melanoma = tested on: MALME-3M melanoma
LOX IMVI melanoma = tested on: LOX IMVI melanoma
HL-60(TB) leukemia = tested on: HL-60(TB) leukemia
HOP-62 NSCLC = tested on: HOP-62 NSCLC
SNB-75 CNS = tested on: SNB-75 CNS
ACHN renal = tested on: ACHN renal
OVCAR-8 ovarian = tested on: OVCAR-8 ovarian
SF-268 CNS = tested on: SF-268 CNS
EKVX NSCLC = tested on: EKVX NSCLC
SR leukemia = tested on: SR leukemia
CAKI-1 renal = tested on: CAKI-1 renal
NCI-H23 lung = tested on: NCI-H23 lung

## CC[C@@H](CCCCC1CC[C@H]2CC(=O)C[C@@H]12)OC (stereo partly specified)
UACC-62 melanoma
  TGI: > 100 µM
U251 CNS
  TGI: > 100 µM
PC-3 prostate
  TGI: > 100 µM
SW-620 colon
  TGI: > 100 µM
SN12C renal
  TGI: > 100 µM
786-0 renal
  TGI: > 100 µM
SK-MEL-28 melanoma
  TGI: > 100 µM
HCT-116 colon
  TGI: > 100 µM
NCI-H460 lung
  TGI: > 100 µM
UACC-257 melanoma
  TGI: > 100 µM
NCI-H226 lung
  TGI: > 100 µM
A549 NSCLC
  TGI: > 100 µM
SF-295 CNS
  TGI: > 100 µM
DU-145 prostate
  TGI: > 100 µM
MDA-MB-435
  TGI: > 100 µM
MDA-MB-231 breast
  TGI: > 100 µM
NCI-H522 lung
  TGI: > 100 µM
MCF7 breast
  TGI: > 100 µM
IGROV1 ovarian
  TGI: > 100 µM
HOP-92 NSCLC
  TGI: > 100 µM
CCRF-CEM leukemia
  TGI: > 100 µM
RXF 393 renal
  TGI: > 100 µM
SK-OV-3 ovarian
  TGI: > 100 µM
OVCAR-4 ovarian
  TGI: > 100 µM
HS 578T breast
  TGI: > 100 µM
TK-10 renal
  TGI: > 100 µM
NCI/ADR-RES ovarian
  TGI: > 100 µM
HCC-2998 colon
  TGI: > 100 µM
OVCAR-3 ovarian
  TGI: > 100 µM
SK-MEL-5 melanoma
  TGI: > 100 µM
HCT-15 colon
  TGI: > 100 µM
RPMI-8226 leukemia
  TGI: > 100 µM
COLO 205 colon
  TGI: > 100 µM
MOLT-4 leukemia
  TGI: > 100 µM
M14 melanoma
  TGI: > 100 µM
SF-539 CNS
  TGI: > 100 µM
A498 renal
  TGI: > 100 µM
SNB-19 CNS
  TGI: > 100 µM
K-562 leukemia
  TGI: 80.1 µM
OVCAR-5 ovarian
  TGI: > 100 µM
HT29 colon
  TGI: > 100 µM
KM12 colon
  TGI: > 100 µM
SK-MEL-2 melanoma
  TGI: > 100 µM
MDA-N
  TGI: > 100 µM
MALME-3M melanoma
  TGI: > 100 µM
LOX IMVI melanoma
  TGI: > 100 µM
HL-60(TB) leukemia
  TGI: > 100 µM
HOP-62 NSCLC
  TGI: > 100 µM
SNB-75 CNS
  TGI: > 100 µM
ACHN renal
  TGI: > 100 µM
OVCAR-8 ovarian
  TGI: > 100 µM
SF-268 CNS
  TGI: > 100 µM
EKVX NSCLC
  TGI: > 100 µM
SR leukemia
  TGI: > 100 µM
CAKI-1 renal
  TGI: > 100 µM
NCI-H23 lung
  TGI: > 100 µM
